Measured values published in ChEMBL document CHEMBL4376849, “Harmicines - harmine and cinnamic acid hybrids as novel antiplasmodial hits” (Eur J Med Chem, 2020).

Tested on: Plasmodium falciparum
Experiment: Antiplasmodial activity against chloroquine-sensitive Plasmodium falciparum 3D7 erythrocytic stage measured after 3 days by HRP2 assay
Format: functional, organism-based
Settings: 3D7, 72 h

Compound	IC50
Cc1nccc2c1[nH]c1cc(OCc3cn(C/C=C/c4ccc5c(c4)OCO5)nn3)ccc12	160 nM
Cc1nccc2c3ccc(OCc4cn(C/C=C/c5ccccc5)nn4)cc3n(Cc3cn(C/C=C/c4ccccc4)nn3)c12	560 nM
COc1ccc(/C=C/Cn2cc(COc3ccc4c(c3)[nH]c3c(C)nccc34)nn2)cc1	430 nM
Cc1nccc2c1[nH]c1cc(OCc3cn(C/C=C/c4ccc(F)c(F)c4)nn3)ccc12	340 nM
C/C(=C\c1ccccc1)Cn1cc(COc2ccc3c4ccnc(C)c4n(Cc4cn(C/C(C)=C/c5ccccc5)nn4)c3c2)nn1	1340 nM
Cc1nccc2c1[nH]c1cc(OCc3cn(C/C=C/c4ccc(F)cc4)nn3)ccc12	200 nM
COc1ccc(/C=C/Cn2cc(Cn3c4cc(OC)ccc4c4ccnc(C)c43)nn2)cc1	610 nM
Cc1nccc2c1[nH]c1cc(OCc3cn(C/C=C/c4cccc(F)c4)nn3)ccc12	200 nM
Cc1nccc2c1[nH]c1cc(OCc3cn(C/C=C/c4ccc(Cl)cc4)nn3)ccc12	150 nM
COc1ccc2c3ccnc(C)c3n(Cc3cn(C/C=C/c4ccc(F)c(F)c4)nn3)c2c1	650 nM
Cc1nccc2c3ccc(OCc4cn(C/C=C/c5ccc(F)cc5)nn4)cc3n(Cc3cn(C/C=C/c4ccc(F)cc4)nn3)c12	620 nM
Cc1nccc2c3ccc(OCc4cn(C/C=C/c5ccc(F)c(F)c5)nn4)cc3n(Cc3cn(C/C=C/c4ccc(F)c(F)c4)nn3)c12	1070 nM
C/C(=C\c1ccccc1)Cn1cc(COc2ccc3c(c2)[nH]c2c(C)nccc23)nn1	330 nM

Tested on: Plasmodium falciparum
Experiment: Antiplasmodial activity against chloroquine-resistant Plasmodium falciparum Dd2 erythrocytic stage measured after 3 days by HRP2 assay
Format: functional, organism-based
Settings: Dd2, 72 h

Compound	IC50
Cc1nccc2c1[nH]c1cc(OCc3cn(C/C=C/c4ccc5c(c4)OCO5)nn3)ccc12	470 nM
Cc1nccc2c3ccc(OCc4cn(C/C=C/c5ccccc5)nn4)cc3n(Cc3cn(C/C=C/c4ccccc4)nn3)c12	1590 nM
COc1ccc(/C=C/Cn2cc(COc3ccc4c(c3)[nH]c3c(C)nccc34)nn2)cc1	690 nM
Cc1nccc2c1[nH]c1cc(OCc3cn(C/C=C/c4ccc(F)c(F)c4)nn3)ccc12	1010 nM
C/C(=C\c1ccccc1)Cn1cc(COc2ccc3c4ccnc(C)c4n(Cc4cn(C/C(C)=C/c5ccccc5)nn4)c3c2)nn1	4020 nM
Cc1nccc2c1[nH]c1cc(OCc3cn(C/C=C/c4ccc(F)cc4)nn3)ccc12	840 nM
COc1ccc(/C=C/Cn2cc(Cn3c4cc(OC)ccc4c4ccnc(C)c43)nn2)cc1	16600 nM
Cc1nccc2c1[nH]c1cc(OCc3cn(C/C=C/c4cccc(F)c4)nn3)ccc12	1190 nM
Cc1nccc2c1[nH]c1cc(OCc3cn(C/C=C/c4ccc(Cl)cc4)nn3)ccc12	690 nM
COc1ccc2c3ccnc(C)c3n(Cc3cn(C/C=C/c4ccc(F)c(F)c4)nn3)c2c1	2550 nM
Cc1nccc2c3ccc(OCc4cn(C/C=C/c5ccc(F)cc5)nn4)cc3n(Cc3cn(C/C=C/c4ccc(F)cc4)nn3)c12	8000 nM
Cc1nccc2c3ccc(OCc4cn(C/C=C/c5ccc(F)c(F)c5)nn4)cc3n(Cc3cn(C/C=C/c4ccc(F)c(F)c4)nn3)c12	17900 nM
C/C(=C\c1ccccc1)Cn1cc(COc2ccc3c(c2)[nH]c2c(C)nccc23)nn1	3060 nM

Tested on: Plasmodium berghei
Experiment: Antiplasmodial activity against liver stage luciferase expressing Plasmodium berghei sporozoites infected in human Huh7 cells preincubated with host cells for 1 hr followed by plasmodium infection by bioluminescence assay
Format: functional, organism-based
Settings: Huh-7

Compound	IC50
C/C(=C\c1ccccc1)Cn1cc(COc2ccc3c(c2)[nH]c2c(C)nccc23)nn1	660 nM

Tested on: HepG2
Experiment: Cytotoxicity against human HepG2 cells measured after 24 hrs by neutral red assay
Format: cell-based
Settings: HepG2, 24 h

Compound	IC50
Cc1nccc2c1[nH]c1cc(OCc3cn(C/C=C/c4ccc5c(c4)OCO5)nn3)ccc12	5600 nM
Cc1nccc2c3ccc(OCc4cn(C/C=C/c5ccccc5)nn4)cc3n(Cc3cn(C/C=C/c4ccccc4)nn3)c12	8590 nM
COc1ccc(/C=C/Cn2cc(COc3ccc4c(c3)[nH]c3c(C)nccc34)nn2)cc1	5370 nM
Cc1nccc2c1[nH]c1cc(OCc3cn(C/C=C/c4ccc(F)c(F)c4)nn3)ccc12	740 nM
C/C(=C\c1ccccc1)Cn1cc(COc2ccc3c4ccnc(C)c4n(Cc4cn(C/C(C)=C/c5ccccc5)nn4)c3c2)nn1	25000 nM
Cc1nccc2c1[nH]c1cc(OCc3cn(C/C=C/c4ccc(F)cc4)nn3)ccc12	2190 nM
COc1ccc(/C=C/Cn2cc(Cn3c4cc(OC)ccc4c4ccnc(C)c43)nn2)cc1	> 120000 nM
Cc1nccc2c1[nH]c1cc(OCc3cn(C/C=C/c4cccc(F)c4)nn3)ccc12	3110 nM
Cc1nccc2c1[nH]c1cc(OCc3cn(C/C=C/c4ccc(Cl)cc4)nn3)ccc12	8800 nM
COc1ccc2c3ccnc(C)c3n(Cc3cn(C/C=C/c4ccc(F)c(F)c4)nn3)c2c1	9750 nM
Cc1nccc2c3ccc(OCc4cn(C/C=C/c5ccc(F)cc5)nn4)cc3n(Cc3cn(C/C=C/c4ccc(F)cc4)nn3)c12	12100 nM
Cc1nccc2c3ccc(OCc4cn(C/C=C/c5ccc(F)c(F)c5)nn4)cc3n(Cc3cn(C/C=C/c4ccc(F)c(F)c4)nn3)c12	11000 nM
C/C(=C\c1ccccc1)Cn1cc(COc2ccc3c(c2)[nH]c2c(C)nccc23)nn1	25300 nM

Tested on: not listed separately
Experiment: Selectivity index, ratio of IC50 for human HepG2 cells to IC50 for Plasmodium falciparum 3D7
Format: toxicity
Settings: read-out: Ratio IC50

Compound	selectivity ratio
Cc1nccc2c1[nH]c1cc(OCc3cn(C/C=C/c4ccc5c(c4)OCO5)nn3)ccc12	35
Cc1nccc2c3ccc(OCc4cn(C/C=C/c5ccccc5)nn4)cc3n(Cc3cn(C/C=C/c4ccccc4)nn3)c12	15
COc1ccc(/C=C/Cn2cc(COc3ccc4c(c3)[nH]c3c(C)nccc34)nn2)cc1	12
Cc1nccc2c1[nH]c1cc(OCc3cn(C/C=C/c4ccc(F)c(F)c4)nn3)ccc12	2
C/C(=C\c1ccccc1)Cn1cc(COc2ccc3c4ccnc(C)c4n(Cc4cn(C/C(C)=C/c5ccccc5)nn4)c3c2)nn1	19
Cc1nccc2c1[nH]c1cc(OCc3cn(C/C=C/c4ccc(F)cc4)nn3)ccc12	11
COc1ccc(/C=C/Cn2cc(Cn3c4cc(OC)ccc4c4ccnc(C)c43)nn2)cc1	> 197
Cc1nccc2c1[nH]c1cc(OCc3cn(C/C=C/c4cccc(F)c4)nn3)ccc12	16
Cc1nccc2c1[nH]c1cc(OCc3cn(C/C=C/c4ccc(Cl)cc4)nn3)ccc12	59
COc1ccc2c3ccnc(C)c3n(Cc3cn(C/C=C/c4ccc(F)c(F)c4)nn3)c2c1	15
Cc1nccc2c3ccc(OCc4cn(C/C=C/c5ccc(F)cc5)nn4)cc3n(Cc3cn(C/C=C/c4ccc(F)cc4)nn3)c12	20
Cc1nccc2c3ccc(OCc4cn(C/C=C/c5ccc(F)c(F)c5)nn4)cc3n(Cc3cn(C/C=C/c4ccc(F)c(F)c4)nn3)c12	6
C/C(=C\c1ccccc1)Cn1cc(COc2ccc3c(c2)[nH]c2c(C)nccc23)nn1	77
